This note sets out measurements from ChEMBL document CHEMBL1133335, “Serendipitous synthesis of novel dehydro- and dechloro-pseudomycin B (PSB) derivatives” (Bioorg Med Chem Lett, 2000).

Converted amounts (≈) assume the structure as drawn. Where a SMILES comes first, the peptide text is derived from it. Bridges are numbered along the chain shown (N, C = ends). [ ]: non-standard residue; d: D form. The star is where a group is joined. Tetradecanoyl(3R-OH) = CCCCCCCCCCC[C@@H](O)CC(=O)*; Asp(3S-OH) = N[C@H](C(=O)O)[C@H](O)C(=O)O; Thr(4-Cl) = N[C@H](C(=O)O)[C@H](O)CCl; aThr = C[C@H](O)[C@H](N)C(=O)O; dDab = NCC[C@@H](N)C(=O)O; Dab = NCC[C@H](N)C(=O)O; Dhb = C/C=C(\N)C(=O)O

Series [1] concerns Mus musculus. The series is described as follows: Compound (at 20 mg/kg) was tested to induce tail vein irritation in mice; Negative. It counts as ADME, organism-based. Details: dose 20 mg/kg. As to conditions: in vivo.
The next series deals with Aspergillus fumigatus. Kind of series: In vitro minimum inhibitory concentration against Aspergillus fumigatus. It counts as functional.
The subject of another series is Candida albicans. The series is described as follows: In vitro minimum inhibitory concentration against Candida albicans. It counts as functional.
The next series concerns Cryptococcus neoformans. The series is described as follows: In vitro minimum inhibitory concentration against Cryptococcus neoformans. It counts as functional.
Series [2] has as its system Mus musculus. Kind of series: Compound (at 20 mg/kg) was tested to induce tail vein irritation in mice; Positive. The following applies: in vivo. Details: dose 20 mg/kg. The format is ADME, organism-based.

Usually MIC stands for the lowest concentration found to suppress growth. On to `C/C=C1\NC(=O)[C@H]([C@@H](C)O)NC(=O)[C@@H](CCN)NC(=O)[C@H](CCCCN)N2C(=O)C[C@@H](NC(=O)[C@H](CCN)NC(=O)C(NC(=O)C[C@@H](O)CCCCCCCCCCC)COC(=O)[C@@H]([C@@H](O)CCl)NC(=O)[C@H]([C@H](O)C(=O)O)NC1=O)C2=O` (stereo not given in full), for which the Tail vein toxicity result in the series on Mus musculus [1] was “Negative”. In addition, the MIC in the series on Aspergillus fumigatus is > 20 µg/mL; against Candida albicans it was > 20 µg/mL; in the series on Cryptococcus neoformans it was 10 µg/mL (≈ 8.41 µM).
With `C/C=C1\NC(=O)[C@H]([C@H](C)O)NC(=O)[C@H](CCN)NC(=O)[C@H](CCCCN)NC(=O)[C@H](CC(=O)O)NC(=O)[C@@H](CCN)NC(=O)[C@@H](NC(=O)C[C@H](O)CCCCCCCCCCC)COC(=O)[C@H]([C@H](O)CCl)NC(=O)[C@H]([C@H](O)C(=O)O)NC1=O` [PSEUDOMYCIN B] ({Tetradecanoyl(3R-OH)}-S[dDab]DK[Dab][aThr][Dhb][Asp(3S-OH)][Thr(4-Cl)]; ester 1-C), the Tail vein toxicity entry with Mus musculus [2] is on record as “POSITIVE”. The results for the MIC against Aspergillus fumigatus, with Candida albicans and with Cryptococcus neoformans were 20 µg/mL (≈ 16.6 µM), 0.312 µg/mL (≈ 0.258 µM) and < 0.01 µg/mL, respectively.
For the compound `C/C=C1\NC(=O)[C@H]([C@H](C)O)NC(=O)[C@H](CCN)NC(=O)[C@H](CCCCN)NC(=O)[C@H]2CC(=O)O[C@H](C(=O)O)[C@H](NC1=O)C(=O)N[C@@H]([C@H](O)CCl)C(=O)OC[C@H](NC(=O)C[C@H](O)CCCCCCCCCCC)C(=O)N[C@H](CCN)C(=O)N2`, the Tail vein toxicity entry with Mus musculus [1] is “Negative”. Also, the MIC with Aspergillus fumigatus is > 20 µg/mL; against Candida albicans, 5 µg/mL (≈ 4.2 µM); against Cryptococcus neoformans, 0.625 µg/mL (≈ 0.525 µM).
With `C/C=C1\NC(=O)[C@H]([C@H](C)O)NC(=O)[C@H](CCN)NC(=O)[C@H](CCCCN)N2C(=O)C[C@H](NC(=O)[C@@H](CCN)NC(=O)[C@@H](NC(=O)C[C@H](O)CCCCCCCCCCC)COC(=O)/C(=C\CO)NC(=O)[C@H]([C@H](O)C(=O)O)NC1=O)C2=O`, the minimal inhibitory concentration (MIC) with Aspergillus fumigatus was > 20 µg/mL; against Candida albicans, > 20 µg/mL; with Cryptococcus neoformans, 20 µg/mL (≈ 17.3 µM).
